Results: paper PMC6164663, “Flavonoids as Putative Epi-Modulators: Insight into Their Binding Mode with BRD4 Bromodomains Using Molecular Docking and Dynamics” (Biomolecules, 2018)

Target: T1, BRD4 (Homo sapiens, UniProt O60885)
T1 construct: tandem (BD1 + BD2)
Assay: AlphaScreen binding assay with H4 peptide ([…]) K5/[…] Ac, duplicate dose-response (IC50 […])
Settings: read-out: DATA 2

O=c1cc(-c2ccc(O)c(-c3c(O)cc(O)c4c(=O)cc(-c5ccc(O)cc5)oc34)c2)oc2cc(O)cc(O)c12 [amentoflavone]
IC50: 30.4 µM
